Patent US8895499B2, “β-hairpin peptidomimetics” (Polyphor AG, priority 2010, dated 2014)
≈ marks a conversion by molar mass, not a printed value. Peptide text beside a SMILES is read from it.

What was measured:
[1] = tested on: Shigella boydii DSM 7532; details: Mueller-Hinton II broth + 0.02% BSA, 18-20 hours at 37° C.
Method: […] colony forming units (CFU)/mL. Aliquots (50 μl) of inoculate were added to 50 μl of MH broth+0.02% BSA containing the peptide in serial two-fold dilutions. The following microorganisms were used to determine antibiotic selectivity of the peptides: Bacillus subtilis DSM 10 and Shigella boydii DSM 7532.

[2] = tested on: human red blood cells (hRBC); assay type: cell-based; details: red cells of human, 1 h
Method: The peptides were tested for their hemolytic activity against human red blood cells (hRBC). Fresh hRBC were washed three times with phosphate buffered saline (PBS) and centrifuged for 10 min at 2000×g. Compounds (100 μg/mL) were incubated with 20% hRBC (v/v) for 1 h at 37° C. and shaking at 300 rpm. The final erythrocyte concentration was approximately 0.9×10^9 cells/mL. A value of 0% and 100% cell lyses, respectively, was determined by incubation of hRBC in the presence of PBS containing 0.001% acetic acid and 2.5% Triton X-100 in H2O, respectively. The samples were centrifuged, the supernatants were 8-fold diluted in PBS buffer and the optical densities (OD) were measured at 540 nm. The 100% lyses value (OD540H2O) gave an OD50 of approximately 0.5-1.0.
Percent hemolysis was calculated as follows: (OD540peptide/OD540H2O)×100%.

[3] = in vitro; assay type: cell-based
Method: The cytotoxicity of the peptides to HELA cells (Acc57) and COS-7 cells (CRL-1651) was determined using the MTT reduction assay (T. Mossman, J. Immunol. Meth. 1983, 65, 55-63; M. V. Berridge, A. S. Tan, Arch. Biochem. Biophys. 1993, 303, 474-482). Briefly, the method was as follows: 4000 HELA cells/well and 3400 COS-7 cells/well were seeded and grown in 96-well microtiter plates for 24 h at 37° C. at 5% CO2. Thereafter, time zero (Tz) was determined by MTT reduction (see below). The supernatant of the remaining wells was discarded, and fresh medium and compounds in serial dilutions (12.5, 25 and 50 μg/mL, triplicates) were pipetted into the wells. After incubation of the cells for 48 h at 37° C. at 5% CO2 the supernatant was discarded again and 100 μL MTT reagent (0.5 mg/mL in RPMI1640 and DMEM, respectively)/well was added. Following incubation at 37° C. for 2-4 h the media were aspirated and the cells were spiked (100 μL isopropanol/well). The absorbance of the solubilized formazan was measured at 595 nm (OD595peptide). For each concentration averages were calculated from triplicates. The percentage of growth was calculated as follows: (OD595peptide-OD595Tz-OD595Empty well)/(OD595Tz-OD595Empty well)×100%. The GI50 (Growth Inhibition) concentrations were calculated for each peptide by using a trend line function for the concentrations (50, 25, 12.5 and 0 μg/mL), the corresponding percentages and the value 50, (=TREND (C50:C0%50:%0,50).

| Structure (SMILES) | Shigella boydii DSM 7532 MIC [1] | Hemolysis at 100 μg/mL [2] | GI50 at 48 h ([3]; African green monkey) | GI50 at 48 h ([3]; human) |
| --- | --- | --- | --- | --- |
| CC[C@H](C)[C@@H]1NC(=O)[C@H](CCCNC(=N)N)NC(=O)[C@H](Cc2c[nH]c3ccccc23)NC(=O)[C@@H]2CCCN2C(=O)[C@H]2CCCN2C(=O)[C@H](C)NC(=O)[C@H](CCC(N)=O)NC(=O)[C@H](CC(C)C)NC(=O)[C@H](CCCNC(=N)N)NC(=O)[C@H](CCC(N)=O)NC(=O)[C@H]([C@@H](C)O)NC(=O)[C@@H](CCCNC(=N)N)NC(=O)[C@H]([C@@H](C)CC)NC(=O)[C@H](CCCNC(=N)N)NC1=O [Example 12] (HELM PEPTIDE1{W.R.I.R.I.[dR].T.Q.R.L.Q.A.[dP].P}$PEPTIDE1,PEPTIDE1,1:R1-14:R2$$$V2.0) | >16 µg/mL | 0.7% | > 50 µg/mL | > 50 µg/mL |
| CC[C@H](C)[C@@H]1NC(=O)[C@H](CCCNC(=N)N)NC(=O)[C@H](Cc2c[nH]c3ccccc23)NC(=O)[C@@H]2CCCN2C(=O)[C@H]2CCCN2C(=O)[C@H](C)NC(=O)[C@H](CCC(N)=O)NC(=O)[C@H](CC(C)C)NC(=O)[C@H](CCCNC(=N)N)NC(=O)[C@H](CCC(N)=O)NC(=O)[C@H](CC(C)C)NC(=O)[C@@H](CCCNC(=N)N)NC(=O)[C@H]([C@@H](C)CC)NC(=O)[C@H](CCCNC(=N)N)NC1=O [Example 13] (HELM PEPTIDE1{W.R.I.R.I.[dR].L.Q.R.L.Q.A.[dP].P}$PEPTIDE1,PEPTIDE1,1:R1-14:R2$$$V2.0) | 16 µg/mL | 0.0% | > 50 µg/mL | > 50 µg/mL |
| CC[C@H](C)[C@@H]1NC(=O)[C@H](CCCNC(=N)N)NC(=O)[C@H](Cc2c[nH]c3ccccc23)NC(=O)[C@@H]2CCCN2C(=O)[C@H]2CCCN2C(=O)[C@H](C)NC(=O)[C@H](CCC(N)=O)NC(=O)[C@H](CC(C)C)NC(=O)[C@H](CCCNC(=N)N)NC(=O)[C@H](CCC(N)=O)NC(=O)[C@H](Cc2ccc(O)cc2)NC(=O)[C@@H](CCCNC(=N)N)NC(=O)[C@H]([C@@H](C)CC)NC(=O)[C@H](CCCNC(=N)N)NC1=O [Example 14] (HELM PEPTIDE1{W.R.I.R.I.[dR].Y.Q.R.L.Q.A.[dP].P}$PEPTIDE1,PEPTIDE1,1:R1-14:R2$$$V2.0) | 16 µg/mL | 0.0% | > 50 µg/mL | > 50 µg/mL |
| CC[C@H](C)[C@@H]1NC(=O)[C@H](CCCNC(=N)N)NC(=O)[C@H](Cc2c[nH]c3ccccc23)NC(=O)[C@@H]2CCCN2C(=O)[C@H]2CCCN2C(=O)[C@H](C)NC(=O)[C@H](CCC(N)=O)NC(=O)[C@H](Cc2ccc(O)cc2)NC(=O)[C@H](CCCNC(=N)N)NC(=O)[C@H](CCC(N)=O)NC(=O)[C@H](CC(N)=O)NC(=O)[C@@H](CCCNC(=N)N)NC(=O)[C@H]([C@@H](C)CC)NC(=O)[C@H](CCCNC(=N)N)NC1=O [Example 15] (HELM PEPTIDE1{W.R.I.R.I.[dR].N.Q.R.Y.Q.A.[dP].P}$PEPTIDE1,PEPTIDE1,1:R1-14:R2$$$V2.0) | 16 µg/mL | 0.0% | > 50 µg/mL | > 50 µg/mL |
| CC[C@H](C)[C@@H]1NC(=O)[C@H](CCCNC(=N)N)NC(=O)[C@H](Cc2c[nH]c3ccccc23)NC(=O)[C@@H]2CCCN2C(=O)[C@H]2CCCN2C(=O)[C@H](C)NC(=O)[C@H](CCC(N)=O)NC(=O)[C@H](Cc2c[nH]c3ccccc23)NC(=O)[C@H](CCCNC(=N)N)NC(=O)[C@H](CCC(N)=O)NC(=O)[C@H](CC(N)=O)NC(=O)[C@@H](CCCNC(=N)N)NC(=O)[C@H]([C@@H](C)CC)NC(=O)[C@H](CCCNC(=N)N)NC1=O [Example 16] (HELM PEPTIDE1{W.R.I.R.I.[dR].N.Q.R.W.Q.A.[dP].P}$PEPTIDE1,PEPTIDE1,1:R1-14:R2$$$V2.0) | 16 µg/mL | 0.5% | > 50 µg/mL | > 50 µg/mL |
| CC[C@H](C)[C@@H]1NC(=O)[C@H](CCCNC(=N)N)NC(=O)[C@H](Cc2c[nH]c3ccccc23)NC(=O)[C@@H]2CCCN2C(=O)[C@H]2CCCN2C(=O)[C@H](CCN)NC(=O)[C@H](CCCNC(=N)N)NC(=O)[C@H](CC(N)=O)NC(=O)[C@H](CCN)NC(=O)[C@H](Cc2c[nH]c3ccccc23)NC(=O)[C@H](CC(N)=O)NC(=O)[C@@H](CCN)NC(=O)[C@H]([C@@H](C)CC)NC(=O)[C@H](CCCNC(=N)N)NC1=O [Example 17] (HELM PEPTIDE1{W.R.I.R.I.[NCC[C@@H](N[*:1])C(=O)[*:2]].N.W.[Dab].N.R.[Dab].[dP].P}$PEPTIDE1,PEPTIDE1,1:R1-14:R2$$$V2.0) | 4 µg/mL | 0.2% | 44 µg/mL (≈ 24.6 µM) | 38 µg/mL (≈ 21.2 µM) |
| CC[C@H](C)[C@@H]1NC(=O)[C@H](CCCNC(=N)N)NC(=O)[C@H](Cc2c[nH]c3ccccc23)NC(=O)[C@@H]2CCCN2C(=O)[C@H]2CCCN2C(=O)[C@H](CCCNC(=N)N)NC(=O)[C@H](CCCNC(=N)N)NC(=O)[C@H](CC(N)=O)NC(=O)[C@H](CCCNC(=N)N)NC(=O)[C@H](Cc2c[nH]cn2)NC(=O)[C@H](CC(N)=O)NC(=O)[C@@H](CCCNC(=N)N)NC(=O)[C@H]([C@@H](C)CC)NC(=O)[C@H](CCCNC(=N)N)NC1=O [Example 18] (HELM PEPTIDE1{W.R.I.R.I.[dR].N.H.R.N.R.R.[dP].P}$PEPTIDE1,PEPTIDE1,1:R1-14:R2$$$V2.0) | 4 µg/mL | 0.3% | > 50 µg/mL | 39 µg/mL (≈ 20.4 µM) |
